We go through 7 compounds from patent EP1746087A1, “Derivates of 3-indolylmethylene having cytostatic properties” (Universitaet Regensburg, priority 2005, dated 2007).

Assay type in all cases: cell-based, menschlich
In assay [1] the test system is MDA-MB-231-Brustkrebszellen. As to the kind of experiment: Growth inhibition of MDA-MB-231 breast cancer cells in vitro (cytostatic effect). Particulars: MDA-MB-231 cells, read-out: IC50 Hemmwirkung auf das Wachstum. From the text:
(§1) Die cytostatische Wirkung der erfindungsgemäßen Verbindungen wurde an zwei verschiedenen menschlichen Mammacarcinomzellinien in vitro bestimmt (M. Goldbrunner et al., J.Med.Chem. 1997,40,3525). Es handelt sich dabei um die hormonunabhängige MDA-MB-231-Zellinie und die estrogensensitive MCF-7-Linie. Die MDA-MB-231-Zellen wurden auch für die durchflusszytometrischen Analysen zur Zellzyklusverteilung herangezogen (M.J.J. Jaroszeski und R. Heller, Flow Cytometry Protocols, Humana Press, 1998, Totowa New Jersey). Besonders überraschend war, dass diese synthetischen Verbindungen häufig bereits im Konzentrationsbereich von 10 bis 100 nanomolar das Wachstum von menschlichen Tumorzellen stark hemmen, obwohl sie nur ein relativ niedriges Molekulargewicht aufweisen (MG ~ 320 - 500) (Tabelle 2 und 3, Abb. 2). Potente Therapeutika, die ebenfalls in den Zellzyklus eingreifen, besitzen Molekulargewichte im Bereich von 825 (Vincristin als Base) und 850 (Paclitaxel).

Assay [2] has as its system MCF-7-Mammacarcinomzellen. Description: Growth inhibition of MCF-7 mammary carcinoma cells in vitro (cytostatic effect). Particulars: MCF-7 cells, read-out: IC50 Hemmwirkung auf das Wachstum.
Description: as §1

The subject of assay [3] is MDA-MB-231-Mammacarcinomzellen. As to the kind of experiment: Flow-cytometric analysis of cell cycle distribution.
Description: as §1

Like-named read-outs stand apart in the source and are kept apart here.

For the compound `COc1ccc(-c2[nH]c3ccc(C)cc3c2C=C(C#N)C#N)cc1` [Verbindung 1, [2-(4-Methoxyphenyl)-5-methyl-indol-3-yl]-methylenpropandinitril], the IC50 in assay [1] (Homo sapiens) was found to be 280 nM. The IC50 in assay [2] (Homo sapiens, MCF7) is 200 nM. In assay [3] (Konz. 0.5 µM), this compound yielded a Debris % of 7.8%, a G1/G0 % of 41.0%, a G2/M % of 32.0% and a S % of 19.2%. In assay [3] (Konz. 1.0 µM), this compound displayed a Debris % of 16.4%, a G1/G0 % of 16.9%, a G2/M % of 45.4% and a S % of 21.3%. Moreover, in assay [3] (Konz. 5.0 µM), the Debris % amounted to 6.4%, the G1/G0 % worked out at 9.8%, the G2/M % amounted to 57.7% and the S % turned out to be 26.1%.

Consider `CCCCCc1ccc2[nH]c(-c3ccc(OC)cc3)c(C=C(C#N)C#N)c2c1` [Verbindung 8, [2-(4-Methoxyphenyl)-5-n-pentyl-indol-3-yl]-methylenpropandinitril], for which the IC50 in assay [1] (Homo sapiens) is 42 nM; in assay [2] (Homo sapiens, MCF7), 76 nM.

Consider `CCCCCCc1ccc2[nH]c(-c3ccc(OC)cc3)c(C=C(C#N)C#N)c2c1` [Verbindung 9, [5-n-Hexyl-2-(4-methoxyphenyl)-indol-3-yl]-methylenpropandinitril], for which, in assay [1] (Homo sapiens), the 50% inhibitory concentration (IC50) was 46 nM. In addition, in assay [2] (Homo sapiens, MCF7), the IC50 turned out to be 25 nM. In assay [3] (Konz. 0.1 µM), the Debris % is listed as 6.1%, the G1/G0 % was 46.2%, the G2/M % is given as 22.4% and the S % turned out to be 25.3%. In assay [3] (Konz. 0.5 µM), this compound had a Debris % of 22.6%, a G1/G0 % of 7.4%, a G2/M % of 53.9% and a S % of 16.1%. Besides, in assay [3] (Konz. 1.0 µM), the Debris % worked out at 15.9%, the G1/G0 % is 7.1%, the G2/M % is 57.3% and the S % worked out at 19.7%.

Turning to `CCCCc1ccc2[nH]c(-c3ccc(C(F)(F)F)cc3)c(C=NC)c2c1` [Verbindung 19, 5-n-Butyl-2-[4-(trifluormethyl)-phenyl]-indol-3-carbaldehyd-methylimin], the IC50 in assay [1] came to 32 nM; in assay [2] it was 140 nM. The Debris % in assay [3] (Konz. 0.01 µM) is 4.4%; in assay [3] (Konz. 0.05 µM) it was 14.6%; in assay [3] (Konz. 0.1 µM), 27.1%; in assay [3] (Konz. 0.5 µM) it was 20.5%. Besides, the G1/G0 % in assay [3] (Konz. 0.01 µM) came to 43.8%; in assay [3] (Konz. 0.05 µM), 38.9%; in assay [3] (Konz. 0.1 µM), 5.5%; in assay [3] (Konz. 0.5 µM) it was 6.3%. Besides, the G2/M % in assay [3] (Konz. 0.01 µM) is on record as 36.6%; in assay [3] (Konz. 0.05 µM) it was 30.8%; in assay [3] (Konz. 0.1 µM), 59.3%; in assay [3] (Konz. 0.5 µM), 59.8%. In addition, the S % in assay [3] (Konz. 0.01 µM) amounted to 14.0%; in assay [3] (Konz. 0.05 µM), 15.3%; in assay [3] (Konz. 0.1 µM), 7.2%; in assay [3] (Konz. 0.5 µM), 11.1%.

Take `CCCCc1ccc2[nH]c(-c3ccc(OC)cc3)c(C=NO)c2c1` [Verbindung 20, 5-n-Butyl-2-(4-methoxyphenyl)-indol-3-carbaldehyd-oxim]: the IC50 in assay [1] (Homo sapiens) came to 40 nM; in assay [2] (Homo sapiens, MCF7), 210 nM. Besides, the Debris % in assay [3] (Konz. 0.05 µM) was found to be 7.3%; in assay [3] (Konz. 0.1 µM) it was 12.2%; in assay [3] (Konz. 0.5 µM), 9.6%; in assay [3] (Konz. 1.0 µM) it was 13.8%. The G1/G0 % in assay [3] (Konz. 0.05 µM) amounted to 50.0%; in assay [3] (Konz. 0.1 µM) it was 38.6%; in assay [3] (Konz. 0.5 µM), 9.0%; in assay [3] (Konz. 1.0 µM), 9.6%. Further, the G2/M % in assay [3] (Konz. 0.05 µM) was 30.0%; in assay [3] (Konz. 0.1 µM) it was 34.9%; in assay [3] (Konz. 0.5 µM), 64.6%; in assay [3] (Konz. 1.0 µM), 54.8%. Moreover, the S % is 13.2% in assay [3] (Konz. 0.05 µM), 14.4% in assay [3] (Konz. 0.1 µM), 14.4% in assay [3] (Konz. 0.5 µM) and 21.2% in assay [3] (Konz. 1.0 µM).

As for `CCCCc1ccc2[nH]c(-c3ccc(OC)cc3)c(C=NNC(=O)c3ccccc3)c2c1` [Verbindung 22, 5-n-Butyl-2-(4-methoxyphenyl)-indol-3-carbaldehyd-benzoylhydrazon], the IC50 was 32 nM in assay [1] (Homo sapiens) and 130 nM in assay [2] (Homo sapiens, MCF7).

As for `CCCCc1ccc2[nH]c(-c3ccc(C(F)(F)F)cc3)c(C=NNC(=O)c3cccnc3)c2c1` [Verbindung 25, 5-Butyl-2-[4-(trifluormethyl)-phenyl]-indol-3-carbaldehyd-nicotinylhydrazone], the IC50 amounted to 97 nM in assay [1] and 260 nM in assay [2]. Besides, the Debris % in assay [3] (Konz. 0.01 µM) is given as 2.3%; in assay [3] (Konz. 0.05 µM), 2.7%; in assay [3] (Konz. 0.1 µM), 2.6%; in assay [3] (Konz. 0.5 µM) it was 6.9%. In addition, the G1/G0 % in assay [3] (Konz. 0.01 µM) is reported as 50.8%; in assay [3] (Konz. 0.05 µM), 51.2%; in assay [3] (Konz. 0.1 µM) it was 48.8%; in assay [3] (Konz. 0.5 µM), 11.4%. In addition, the G2/M % in assay [3] (Konz. 0.01 µM) stood at 26.3%; in assay [3] (Konz. 0.05 µM), 24.1%; in assay [3] (Konz. 0.1 µM) it was 24.9%; in assay [3] (Konz. 0.5 µM), 75.2%. Besides, the S % in assay [3] (Konz. 0.01 µM) is listed as 21.7%; in assay [3] (Konz. 0.05 µM) it was 23.1%; in assay [3] (Konz. 0.1 µM) it was 24.4%; in assay [3] (Konz. 0.5 µM), 11.0%.
